Test results taken from US11629171B2, “Beta-hairpin peptidomimetics” (POLYPHOR AG, priority 2017, dated 2023).
Values after ≈ are worked out from the molar mass of the structure shown. Where a SMILES comes first, the peptide text is derived from it. Bridges are numbered along the chain shown (N, C = ends). Roman numbers before positions name the chains, in order. [ ]: non-standard residue; d: D form. Leu(3R-OH) = CC(C)[C@@H](O)[C@H](N)C(=O)O; Thr(ol) = C[C@@H](O)[C@H](N)CO; Tle = CC(C)(C)[C@H](N)C(=O)O; Hiv = CC(C)[C@H](O)C(=O)O; dDab = NCC[C@@H](N)C(=O)O; hSer = N[C@@H](CCO)C(=O)O; Dab = NCC[C@H](N)C(=O)O; Abu = CC[C@H](N)C(=O)O; Dap = NC[C@H](N)C(=O)O

Key:
Format in all cases: cell-based
[1] = tested on: Escherichia coli 926415; conditions: 926415
Procedure, shortened: (§1)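 MIC in μg/mL, read as no visible growth after 18-20 hours at 35° C. Peptides were serially diluted two-fold in MH-II broth plus P-80 (0.002% final, v/v) and inoculated at about 10^6 CFU/mL following the CLSI broth microdilution standard.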

[2] = tested on: Escherichia coli ATCC 25922; conditions: ATCC 25922
Procedure, shortened: as §1

[3] = tested on: Acinetobacter baumannii DSM 30008; conditions: DSM 30008
Procedure, shortened: as §1

[4] = tested on: Klebsiella pneumoniae 968733; conditions: 968733
Procedure, shortened: as §1

[5] = tested on: Pseudomonas aeruginosa ATCC 27853; conditions: ATCC 27853
Procedure, shortened: as §1

[6] = tested on: Acinetobacter baumannii 872842; conditions: 872842
Procedure, shortened: as §1

[7] = tested on: Enterobacter cloacae 848840; conditions: 848840
Procedure, shortened: as §1

[8] = tested on: Klebsiella pneumoniae SSI #3010; conditions: SSI #3010
Procedure, shortened: as §1

[9] = tested on: human red blood cells (hRBC); assay: Hemolysis; conditions: red cells of human, 1 h, 200
Procedure, shortened: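 hRBC washed 4× in PBS; 200 μg/mL peptide + 20% (v/v) hRBC, 1 h, 37° C, 300 rpm. Spin, supernatant ~7.5-fold diluted, OD540 blank corrected. % hemolysis = OD540 peptide / OD540 Triton X-100 × 100.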

Row | SMILES | MIC [1] [µg/mL] | MIC [2] [µg/mL] | MIC [3] [µg/mL] | MIC [4] [µg/mL] | MIC [5] [µg/mL] | MIC [6] [µg/mL] | MIC [7] [µg/mL] | MIC [8] [µg/mL] | Hemolysis at 200 μg/mL [9] [%]
1 | CC(=O)N[C@@H](CCN)C(=O)N[C@H](C(=O)N[C@H]1CSSC[C@@H](C(N)=O)NC(=O)[C@H](C(C)(C)C)NC(=O)[C@H](CO)NC(=O)[C@H](Cc2c[nH]c3ccccc23)NC(=O)[C@H](CO)NC(=O)[C@@H](CCN)NC(=O)[C@H](CCC(=O)N[C@@H](CCN)C(=O)N[C@H](C(=O)N[C@@H](CN)C(=O)N[C@H]2CCNC(=O)[C@H]([C@@H](C)O)NC(=O)[C@H](CCN)NC(=O)[C@H](CCN)NC(=O)[C@H](CC(C)C)NC(=O)[C@@H](CC(C)C)NC(=O)[C@H](CCN)NC2=O)[C@@H](C)O)NC(=O)[C@H](CN)NC(=O)[C@H](Cc2ccc(O)cc2)NC1=O)C(C)C [Ex. 125] (I: Ac-[Dab]VCY[Dap]E[dDab]SWS[Tle]C-NH2 / II: [Dab]T[Dap][Dab][Dab][dL]L[Dab][Dab]T; disulfide I:3-I:12; amide I:6-II:N; lactam II:4-II:C) | 0.0625 (≈ 0.0259 µM) | 0.0625 (≈ 0.0259 µM) | 0.125 (≈ 0.0518 µM) | 0.125 (≈ 0.0518 µM) | 0.125 (≈ 0.0518 µM) | 0.125 (≈ 0.0518 µM) | 0.125 (≈ 0.0518 µM) | 0.0625 (≈ 0.0259 µM) | 2
2 | CC(=O)N[C@@H](CCN)C(=O)N[C@H](C(=O)N[C@H]1CSSC[C@@H](C(N)=O)NC(=O)[C@H](C(C)(C)C)NC(=O)[C@H](CO)NC(=O)[C@H](Cc2c[nH]c3ccccc23)NC(=O)[C@H](CCN)NC(=O)[C@@H](CCN)NC(=O)[C@H](CCC(=O)N[C@@H](CCN)C(=O)N[C@H](C(=O)N[C@@H](CN)C(=O)N[C@H]2CCNC(=O)[C@H]([C@@H](C)O)NC(=O)[C@H](CCN)NC(=O)[C@H](CCN)NC(=O)[C@H](CC(C)C)NC(=O)[C@@H](CC(C)C)NC(=O)[C@H](CCN)NC2=O)[C@@H](C)O)NC(=O)[C@H](CN)NC(=O)[C@H](Cc2ccc(O)cc2)NC1=O)C(C)C [Ex. 126] (I: Ac-[Dab]VCY[Dap]E[dDab][Dab]WS[Tle]C-NH2 / II: [Dab]T[Dap][Dab][Dab][dL]L[Dab][Dab]T; disulfide I:3-I:12; amide I:6-II:N; lactam II:4-II:C) | 0.125 (≈ 0.0515 µM) | 0.125 (≈ 0.0515 µM) | 0.125 (≈ 0.0515 µM) | 0.25 (≈ 0.103 µM) | 0.25 (≈ 0.103 µM) | 0.25 (≈ 0.103 µM) | 0.5 (≈ 0.206 µM) | 0.125 (≈ 0.0515 µM) | <1
3 | CC(C)C[C@@H]1NC(=O)[C@H](CCN)NC(=O)[C@H](CCN)NC(=O)[C@H](CC(C)C)NC(=O)[C@@H](CC(C)C)NC(=O)[C@H](CCN)NC(=O)[C@@H](NC(=O)[C@@H](CCN)NC(=O)CC[C@@H]2NC(=O)[C@H](CCN)NC(=O)[C@H](Cc3ccc(O)cc3)NC(=O)[C@@H](NC(=O)[C@@H](O)C(C)C)CSSC[C@@H](C(=O)N[C@H](CO)[C@@H](C)O)NC(=O)[C@H](C(C)(C)C)NC(=O)[C@H](CO)NC(=O)[C@H](Cc3c[nH]c4ccccc34)NC(=O)[C@H](CCO)NC(=O)[C@@H](CCN)NC2=O)CCNC1=O [Ex. 127] (I: H-[Hiv]CY[Dab]E[dDab][hSer]WS[Tle]C[Thr(ol)] / II: [dDab][Dab][Dab][dL]L[Dab][Dab]L; disulfide I:2-I:11; amide I:5-II:N; lactam II:2-II:C) | 0.125 (≈ 0.0565 µM) | 0.0625 (≈ 0.0283 µM) | 0.0625 (≈ 0.0283 µM) | 0.5 (≈ 0.226 µM) | 0.5 (≈ 0.226 µM) | 0.0625 (≈ 0.0283 µM) | 0.125 (≈ 0.0565 µM) | 0.25 (≈ 0.113 µM) | 2
4 | CC(=O)N[C@H](C(=O)N[C@H]1CSSC[C@@H](C(=O)N[C@@H](CO)C(N)=O)NC(=O)[C@H](C(C)(C)C)NC(=O)[C@H](CO)NC(=O)[C@H](Cc2c[nH]c3ccccc23)NC(=O)[C@H](CO)NC(=O)[C@@H](CCN)NC(=O)[C@H](CCC(=O)N[C@@H](CCN)C(=O)N[C@H](C(=O)N[C@@H](CN)C(=O)N[C@H]2CCNC(=O)[C@H]([C@@H](C)O)NC(=O)[C@H](CCN)NC(=O)[C@H](CCN)NC(=O)[C@H](CC(C)C)NC(=O)[C@@H](CC(C)C)NC(=O)[C@H](CCN)NC2=O)[C@@H](C)O)NC(=O)[C@H](CO)NC(=O)[C@H](Cc2ccc(O)cc2)NC1=O)C(C)C [Ex. 132] (I: Ac-VCYSE[dDab]SWS[Tle]CS-NH2 / II: [Dab]T[Dap][Dab][Dab][dL]L[Dab][Dab]T; disulfide I:2-I:11; amide I:5-II:N; lactam II:4-II:C) | 0.0625 (≈ 0.026 µM) | 0.03125 (≈ 0.013 µM) | 0.03125 (≈ 0.013 µM) | 0.125 (≈ 0.0521 µM) | 0.125 (≈ 0.0521 µM) | 0.0625 (≈ 0.026 µM) | 0.125 (≈ 0.0521 µM) | 0.125 (≈ 0.0521 µM) | 2
5 | CC(=O)N[C@H](C(=O)N[C@H]1CSSC[C@@H](C(=O)N[C@@H](CO)C(N)=O)NC(=O)[C@H](C(C)(C)C)NC(=O)[C@H](CO)NC(=O)[C@H](Cc2c[nH]c3ccccc23)NC(=O)[C@H](CCN)NC(=O)[C@@H](CCN)NC(=O)[C@H](CCC(=O)N[C@@H](CCN)C(=O)N[C@H](C(=O)N[C@@H](CN)C(=O)N[C@H]2CCNC(=O)[C@H]([C@@H](C)O)NC(=O)[C@H](CCN)NC(=O)[C@H](CCN)NC(=O)[C@H](CC(C)C)NC(=O)[C@@H](CC(C)C)NC(=O)[C@H](CCN)NC2=O)[C@@H](C)O)NC(=O)[C@H](CO)NC(=O)[C@H](Cc2ccc(O)cc2)NC1=O)C(C)C [Ex. 133] (I: Ac-VCYSE[dDab][Dab]WS[Tle]CS-NH2 / II: [Dab]T[Dap][Dab][Dab][dL]L[Dab][Dab]T; disulfide I:2-I:11; amide I:5-II:N; lactam II:4-II:C) | 0.0625 (≈ 0.0259 µM) | 0.03125 (≈ 0.013 µM) | 0.0625 (≈ 0.0259 µM) | 0.125 (≈ 0.0518 µM) | 0.25 (≈ 0.104 µM) | 0.03125 (≈ 0.013 µM) | 0.25 (≈ 0.104 µM) | 0.125 (≈ 0.0518 µM) | 2
6 | CC(=O)N[C@H](C(=O)N[C@H]1CSSC[C@@H](C(=O)N[C@H](C(N)=O)[C@@H](C)O)NC(=O)[C@H](C(C)(C)C)NC(=O)[C@H](CCC(=O)O)NC(=O)[C@H](Cc2c[nH]c3ccccc23)NC(=O)[C@H](CCN)NC(=O)[C@@H](CCN)NC(=O)[C@H](CCC(=O)N[C@@H](CCN)C(=O)N[C@H](C(=O)N[C@@H](CN)C(=O)N[C@H]2CCNC(=O)[C@H]([C@@H](C)O)NC(=O)[C@H](CCN)NC(=O)[C@H](CCN)NC(=O)[C@H]([C@H](O)C(C)C)NC(=O)[C@@H](CC(C)C)NC(=O)[C@H](CCN)NC2=O)[C@@H](C)O)NC(=O)[C@H](CO)NC(=O)[C@H](Cc2ccc(O)cc2)NC1=O)C(C)C [Ex. 134] (I: Ac-VCYSE[dDab][Dab]WE[Tle]CT-NH2 / II: [Dab]T[Dap][Dab][Dab][dL][Leu(3R-OH)][Dab][Dab]T; disulfide I:2-I:11; amide I:5-II:N; lactam II:4-II:C) | 0.125 (≈ 0.0503 µM) | 0.03125 (≈ 0.0126 µM) | 0.03125 (≈ 0.0126 µM) | 0.125 (≈ 0.0503 µM) | 0.125 (≈ 0.0503 µM) | 0.0625 (≈ 0.0252 µM) | 0.125 (≈ 0.0503 µM) | 0.03125 (≈ 0.0126 µM) | 3
7 | CC(=O)N[C@H](C(=O)N[C@H]1CSSC[C@@H](C(=O)N[C@H](C(N)=O)[C@@H](C)O)NC(=O)[C@H](C(C)(C)C)NC(=O)[C@H](CCC(=O)O)NC(=O)[C@H](Cc2c[nH]c3ccccc23)NC(=O)[C@H](CO)NC(=O)[C@@H](CCN)NC(=O)[C@H](CCC(=O)N[C@@H](CCN)C(=O)N[C@H](C(=O)N[C@@H](CN)C(=O)N[C@H]2CCNC(=O)[C@H]([C@@H](C)O)NC(=O)[C@H](CCN)NC(=O)[C@H](CCN)NC(=O)[C@H](CC(C)C)NC(=O)[C@@H](CC(C)C)NC(=O)[C@H](CCN)NC2=O)[C@@H](C)O)NC(=O)[C@H](CCN)NC(=O)[C@H](Cc2ccc(O)cc2)NC1=O)C(C)C [Ex. 135] (I: Ac-VCY[Dab]E[dDab]SWE[Tle]CT-NH2 / II: [Dab]T[Dap][Dab][Dab][dL]L[Dab][Dab]T; disulfide I:2-I:11; amide I:5-II:N; lactam II:4-II:C) | 0.0625 (≈ 0.0253 µM) | 0.03125 (≈ 0.0127 µM) | 0.03125 (≈ 0.0127 µM) | 0.125 (≈ 0.0506 µM) | 0.125 (≈ 0.0506 µM) | 0.03125 (≈ 0.0127 µM) | 0.0625 (≈ 0.0253 µM) | 0.0625 (≈ 0.0253 µM) | <1
8 | CC[C@@H]1NC(=O)[C@@H](CC(C)C)NC(=O)[C@H](CCN)NC(=O)[C@@H](NC(=O)[C@H](CN)NC(=O)[C@@H](NC(=O)[C@H](CCN)NC(=O)CC[C@@H]2NC(=O)[C@H](CCN)NC(=O)[C@H](Cc3ccc(O)cc3)NC(=O)[C@@H](NC(=O)[C@@H](NC(C)=O)C(C)C)CSSC[C@@H](C(=O)N[C@@H](CO)C(N)=O)NC(=O)[C@H](C(C)(C)C)NC(=O)[C@H](CO)NC(=O)[C@H](Cc3c[nH]c4ccccc34)NC(=O)[C@H](CO)NC(=O)[C@@H](CCN)NC2=O)[C@@H](C)O)CCNC(=O)[C@H]([C@@H](C)O)NC(=O)[C@H](CCN)NC(=O)[C@H](CCN)NC1=O [Ex. 136] (I: Ac-VCY[Dab]E[dDab]SWS[Tle]CS-NH2 / II: [Dab]T[Dap][Dab][Dab][dL][Abu][Dab][Dab]T; disulfide I:2-I:11; amide I:5-II:N; lactam II:4-II:C) | 0.0625 (≈ 0.0262 µM) | 0.03125 (≈ 0.0131 µM) | 0.03125 (≈ 0.0131 µM) | 0.0625 (≈ 0.0262 µM) | 0.25 (≈ 0.105 µM) | 0.03125 (≈ 0.0131 µM) | 0.0625 (≈ 0.0262 µM) | 0.0625 (≈ 0.0262 µM) | 3
